# Laboratory results published in the supplement of paper PMC11451515.
# Test system: P12-Ichikawa
# Experiment: cell viability relative to DMSO control; higher = less cytotoxic
# Conditions: 48 h
# In short: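 NOMO1 or SEM cells were plated at 500 cells/well and P12-Ichikawa cells at 1000 cells/well in 1536-well plates (5 μl), after each leukemia line had been adapted for at least four passages in each medium. Pin dosing delivered library compounds in DMSO at 11 threefold concentrations, 47 μM to 0.79 nM. CellTiter-Glo One luminescence was read after 48 h at 37°C. Viability is reported as a per-plate percentage of DMSO wells, with cell-free wells as background.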
# [1] = HPLM + 10% dialyzed FBS, 0.000781 µM
# [2] = HPLM + 10% dialyzed FBS, 0.00234 µM
# [3] = HPLM + 10% dialyzed FBS, 0.00702 µM
# [4] = HPLM + 10% dialyzed FBS, 0.0211 µM
# [5] = HPLM + 10% dialyzed FBS, 0.0632 µM
# [6] = HPLM + 10% dialyzed FBS, 0.19 µM
# [7] = HPLM + 10% dialyzed FBS, 0.569 µM
# [8] = HPLM + 10% dialyzed FBS, 1.71 µM
# [9] = HPLM + 10% dialyzed FBS, 5.12 µM
# [10] = HPLM + 10% dialyzed FBS, 15.4 µM
# [11] = HPLM + 10% dialyzed FBS, 46.1 µM
# [12] = RPMI 5 mM glucose + 10% FBS, 0.000781 µM
# [13] = RPMI 5 mM glucose + 10% FBS, 0.00234 µM
# [14] = RPMI 5 mM glucose + 10% FBS, 0.00702 µM
# [15] = RPMI 5 mM glucose + 10% FBS, 0.0211 µM
# [16] = RPMI 5 mM glucose + 10% FBS, 0.0632 µM
# [17] = RPMI 5 mM glucose + 10% FBS, 0.19 µM
# [18] = RPMI 5 mM glucose + 10% FBS, 0.569 µM
# [19] = RPMI 5 mM glucose + 10% FBS, 1.71 µM
# [20] = RPMI 5 mM glucose + 10% FBS, 5.12 µM
# [21] = RPMI 5 mM glucose + 10% FBS, 15.4 µM
# [22] = RPMI 5 mM glucose + 10% FBS, 46.1 µM
# [23] = RPMI 5 mM glucose + 10% dialyzed FBS, 0.000781 µM
# [24] = RPMI 5 mM glucose + 10% dialyzed FBS, 0.00234 µM
# [25] = RPMI 5 mM glucose + 10% dialyzed FBS, 0.00702 µM
# [26] = RPMI 5 mM glucose + 10% dialyzed FBS, 0.0211 µM
# [27] = RPMI 5 mM glucose + 10% dialyzed FBS, 0.0632 µM
# [28] = RPMI 5 mM glucose + 10% dialyzed FBS, 0.19 µM
# [29] = RPMI 5 mM glucose + 10% dialyzed FBS, 0.569 µM
# [30] = RPMI 5 mM glucose + 10% dialyzed FBS, 1.71 µM
# [31] = RPMI 5 mM glucose + 10% dialyzed FBS, 5.12 µM
# [32] = RPMI 5 mM glucose + 10% dialyzed FBS, 15.4 µM
# [33] = RPMI 5 mM glucose + 10% dialyzed FBS, 46.1 µM
Structure (SMILES),cell viability [1] [%],cell viability [2] [%],cell viability [3] [%],cell viability [4] [%],cell viability [5] [%],cell viability [6] [%],cell viability [7] [%],cell viability [8] [%],cell viability [9] [%],cell viability [10] [%],cell viability [11] [%],cell viability [12] [%],cell viability [13] [%],cell viability [14] [%],cell viability [15] [%],cell viability [16] [%],cell viability [17] [%],cell viability [18] [%],cell viability [19] [%],cell viability [20] [%],cell viability [21] [%],cell viability [22] [%],cell viability [23] [%],cell viability [24] [%],cell viability [25] [%],cell viability [26] [%],cell viability [27] [%],cell viability [28] [%],cell viability [29] [%],cell viability [30] [%],cell viability [31] [%],cell viability [32] [%],cell viability [33] [%]
COc1ccc(CC2NCCc3cc(OC)c(OC)cc32)cc1OC (configuration not stated),88.9,96.3,98.2,99.8,95,98.9,97.4,95.5,94,94,96.7,85.5,88.7,89,87.1,83.2,86,90.9,89.2,82.3,92.2,84.8,95,92.9,86.7,87.9,82.1,92.4,85.3,88.2,87.8,91.3,82.4
Cc1c(CCOc2ccc(C(=O)O)cc2)c2cc(Cl)ccc2n1C(c1ccccc1)c1ccccc1,123,110,112,117,113,113,107,105,101,83.8,71.8,109,112,111,111,108,108,112,101,106,103,86.1,109,111,116,116,107,110,104,113,99.3,103,88.8
COC1=CC=CC2=C1C(=NC(=N2)C3=CC=CS3)NN4C(=O)\C=C(C)/C4=O,94.4,98.3,104,92.5,93.2,86.5,62.2,56.8,19.7,4.94,1.01,90.6,93.7,92.2,92.9,84.7,75.4,62.8,59.7,21.3,4.06,0.767,87,90.7,94.6,86.7,87.8,74.1,62.3,54.9,23.7,3.09,0.857
CCC(C)SSc1ncc[nH]1 (configuration not stated),91.9,99.9,97.1,105,98.2,103,94.9,111,101,69.5,10.6,92.8,102,91.1,90,96.1,95,93.8,98.1,99.7,62.1,6.08,92,91.4,93.5,90.4,90.1,95.8,89.9,97.6,92,34.8,5.7
COc1cc2nc(N(C)CCCNC(=O)C3CCCO3)nc(N)c2cc1OC (configuration not stated),78.4,88.7,80.9,92.3,88.8,87.6,86.2,82.3,88.3,92.6,94.1,82.3,87.4,89.9,91,92.6,91.3,84.6,87.8,91.6,93.9,101,70.4,81.7,76.8,78.9,82.9,83.4,79.5,82.7,76.6,87.8,80.7
O=C(NOCC(O)CO)c1cc(Br)c(F)c(F)c1Nc1ccc(I)cc1F (configuration not stated),82.9,84.2,81.7,87.8,83.8,74.8,74.4,68.2,64.2,73.9,52.3,74.6,87.6,79,73.8,80.3,67.9,63.8,62.5,56.2,66.4,54.5,76.2,79.2,73.9,81.9,74.3,71.2,65.6,71.8,66.1,76.6,58.7
O=C(OC)[C@]12CC[C@@]3(C)[C@]4(C)CC[C@H]5[C@@](C)(C)C(=O)C(=C[C@]5(C)C4=CC(=O)[C@@H]3[C@@H]2C[C@](C)(C)CC1)C#N,100,100,96.3,102,104,105,99.8,97.5,99.2,2.24,2.66,92.7,96.7,97.1,90.3,109,100,107,102,97,2.4,2.78,95.8,93.3,92.3,98.3,101,108,105,90.3,90.7,2.44,2.54
Cc1c(CN2CCN(C(=O)[C@H](C)O)CC2)sc2c(N3CCOCC3)nc(-c3cnc(N)nc3)nc12,96.6,99.8,99.1,103,94.9,99.8,75,69.3,63.8,60.8,59.8,95.6,94,90.7,86.8,75.1,79.5,64.4,52.9,49.4,46.2,43.5,93.5,94.8,97.4,98.5,81.6,77.8,63.1,54.5,41.9,46,42.6
CC(=O)Nc1ccc(OC[C@](C)(O)C(=O)Nc2ccc([N+](=O)[O-])c(C(F)(F)F)c2)cc1,74.6,87,84.5,87.8,85.5,89.1,88.4,88.6,90.8,91.6,86.5,63.5,76.8,71.1,87,85.5,77,80.6,83.8,85.1,86.3,81.2,67.3,76.4,77.3,78.2,92.5,76.4,80,83.4,80.3,85.8,80.7
CCC[C@H](NC(=O)/C(C#N)=C/c1cccc(Br)n1)c1ccccc1,122,121,121,102,124,121,113,113,112,103,6.91,130,122,122,111,120,116,128,122,111,103,5.26,116,131,125,114,114,121,121,121,107,94.4,5.69
O=C([O-])C(O)Cc1ccc(O)c(O)c1 (configuration not stated),109,107,99.1,110,111,106,104,93.7,95.7,90.2,90.1,101,96.6,107,99.6,99.4,98.3,92.6,90.2,99.9,81.8,83.3,95,99.2,99.9,95.5,92.3,96.8,93.2,87.9,89,74.6,83.5
COc1cc2c(cc1-c1c(C)noc1C)ncc1[nH]c(=O)n([C@H](C)c3ccccn3)c12,107,109,111,111,115,105,103,86.2,44.2,48.9,12.2,107,110,101,111,115,99.2,110,92.1,48.3,48.5,23.1,112,106,109,104,105,105,101,90.2,52.4,48.6,22.4
Nc1ccccc1NC(=O)c1ccc(CNC(=O)OCc2cccnc2)cc1,111,118,110,113,105,107,98.4,73.4,20,5.58,4.41,106,112,108,122,108,102,113,71.6,27.8,4.9,3.42,109,111,108,113,114,113,99.6,69.1,21.4,5.4,3.96
N=C(CCSCc1csc(N=C(N)N)n1)N[S+](N)(=O)[O-],95.2,102,103,95.7,108,98.2,106,103,106,108,102,93.1,97.4,97.3,94,96.2,93.2,97.6,95.3,95.3,87.3,99.1,80.3,89.1,98.3,91,95.1,94.9,95,88.7,93.5,87.1,83.2
